Results: patent US9492471B2, “Methods of treating a disease or disorder associated with Bruton'S Tyrosine Kinase” (Celgene Avilomics Research, Inc., priority 2013, dated 2016)
Like-named read-outs stand apart in the source and are kept apart here.

Legend:
Test in all cases: HotSpot kinase profiling
Assay type in all cases: biochemical
PAK2 = target: T1, PAK2 (Homo sapiens, UniProt Q13177)
T1 construct: purchased Reaction Biology Corp
Outline: (§1)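 Percent inhibition, averaged when run more than once and referenced to a DMSO negative control, came from a radioactive filter-binding readout on P81 paper. Reactions of kinase with freshly made substrate and cofactors ran for 2 h at room temperature.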

CLK4 = target: T2, CLK4 (Homo sapiens, UniProt Q9HAZ1)
T2 construct: purchased Reaction Biology Corp
Outline: as §1

FLT4/VEGFR3 = target: T3, FLT4/VEGFR3 (Homo sapiens, UniProt P35916)
T3 construct: purchased Reaction Biology Corp
Outline: as §1

EPHB3 = target: T4, EPHB3 (Homo sapiens, UniProt P54753)
T4 construct: purchased Reaction Biology Corp
T4 sequence (P54753 34-998): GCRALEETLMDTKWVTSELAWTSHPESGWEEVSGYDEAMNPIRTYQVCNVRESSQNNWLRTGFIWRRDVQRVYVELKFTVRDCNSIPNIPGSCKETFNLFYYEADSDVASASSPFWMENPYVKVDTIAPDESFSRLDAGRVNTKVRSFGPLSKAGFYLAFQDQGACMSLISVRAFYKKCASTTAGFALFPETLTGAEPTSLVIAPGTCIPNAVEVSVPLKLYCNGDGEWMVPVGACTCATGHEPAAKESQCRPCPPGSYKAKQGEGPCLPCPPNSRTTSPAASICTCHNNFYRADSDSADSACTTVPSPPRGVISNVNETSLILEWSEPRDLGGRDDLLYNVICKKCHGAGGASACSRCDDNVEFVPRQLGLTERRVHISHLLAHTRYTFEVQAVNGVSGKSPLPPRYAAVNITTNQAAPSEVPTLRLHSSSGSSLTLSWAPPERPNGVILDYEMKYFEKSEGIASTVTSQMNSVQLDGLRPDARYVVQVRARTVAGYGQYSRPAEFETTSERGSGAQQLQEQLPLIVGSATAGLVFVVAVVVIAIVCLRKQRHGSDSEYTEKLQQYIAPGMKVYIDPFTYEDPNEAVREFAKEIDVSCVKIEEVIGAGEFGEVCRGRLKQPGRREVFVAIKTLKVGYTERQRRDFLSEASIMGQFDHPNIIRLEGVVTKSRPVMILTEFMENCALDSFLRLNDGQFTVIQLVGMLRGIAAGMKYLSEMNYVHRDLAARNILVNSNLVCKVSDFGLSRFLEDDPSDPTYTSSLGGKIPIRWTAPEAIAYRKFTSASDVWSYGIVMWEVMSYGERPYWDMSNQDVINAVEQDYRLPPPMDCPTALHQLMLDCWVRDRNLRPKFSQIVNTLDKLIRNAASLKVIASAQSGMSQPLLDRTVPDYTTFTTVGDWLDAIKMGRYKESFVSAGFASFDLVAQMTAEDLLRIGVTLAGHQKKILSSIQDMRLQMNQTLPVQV
Outline: as §1

STK25/YSK1 = target: T5, STK25/YSK1 (Homo sapiens, UniProt O00506)
T5 construct: purchased Reaction Biology Corp
Outline: as §1

DYRK2 = target: T6, DYRK2 (Homo sapiens, UniProt Q92630)
T6 construct: purchased Reaction Biology Corp
T6 sequence (Q92630 1-601): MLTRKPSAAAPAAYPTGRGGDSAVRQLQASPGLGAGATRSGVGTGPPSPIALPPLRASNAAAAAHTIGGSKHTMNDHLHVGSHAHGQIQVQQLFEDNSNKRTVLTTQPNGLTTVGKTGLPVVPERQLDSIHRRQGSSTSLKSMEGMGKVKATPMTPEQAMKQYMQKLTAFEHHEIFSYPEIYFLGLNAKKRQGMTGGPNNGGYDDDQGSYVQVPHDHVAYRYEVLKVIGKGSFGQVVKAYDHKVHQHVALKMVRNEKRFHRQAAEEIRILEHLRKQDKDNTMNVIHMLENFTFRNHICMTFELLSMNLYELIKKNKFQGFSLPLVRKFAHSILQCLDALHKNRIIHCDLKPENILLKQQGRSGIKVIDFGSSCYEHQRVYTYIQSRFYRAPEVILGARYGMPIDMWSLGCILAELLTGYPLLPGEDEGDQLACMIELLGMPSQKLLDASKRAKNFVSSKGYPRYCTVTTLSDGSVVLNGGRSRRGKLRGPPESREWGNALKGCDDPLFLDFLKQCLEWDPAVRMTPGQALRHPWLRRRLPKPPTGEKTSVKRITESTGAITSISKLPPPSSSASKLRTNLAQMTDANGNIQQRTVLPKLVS
Outline: as §1

HIPK3 = target: T7, HIPK3 (Homo sapiens, UniProt Q9H422)
T7 construct: purchased Reaction Biology Corp
Outline: as §1

[1] = read-out: % Enzyme Activity (relative to DMSO controls) Run 1
[2] = read-out: % Enzyme Activity (relative to DMSO controls) Run 2

T3 sequence (P35916 25-1363): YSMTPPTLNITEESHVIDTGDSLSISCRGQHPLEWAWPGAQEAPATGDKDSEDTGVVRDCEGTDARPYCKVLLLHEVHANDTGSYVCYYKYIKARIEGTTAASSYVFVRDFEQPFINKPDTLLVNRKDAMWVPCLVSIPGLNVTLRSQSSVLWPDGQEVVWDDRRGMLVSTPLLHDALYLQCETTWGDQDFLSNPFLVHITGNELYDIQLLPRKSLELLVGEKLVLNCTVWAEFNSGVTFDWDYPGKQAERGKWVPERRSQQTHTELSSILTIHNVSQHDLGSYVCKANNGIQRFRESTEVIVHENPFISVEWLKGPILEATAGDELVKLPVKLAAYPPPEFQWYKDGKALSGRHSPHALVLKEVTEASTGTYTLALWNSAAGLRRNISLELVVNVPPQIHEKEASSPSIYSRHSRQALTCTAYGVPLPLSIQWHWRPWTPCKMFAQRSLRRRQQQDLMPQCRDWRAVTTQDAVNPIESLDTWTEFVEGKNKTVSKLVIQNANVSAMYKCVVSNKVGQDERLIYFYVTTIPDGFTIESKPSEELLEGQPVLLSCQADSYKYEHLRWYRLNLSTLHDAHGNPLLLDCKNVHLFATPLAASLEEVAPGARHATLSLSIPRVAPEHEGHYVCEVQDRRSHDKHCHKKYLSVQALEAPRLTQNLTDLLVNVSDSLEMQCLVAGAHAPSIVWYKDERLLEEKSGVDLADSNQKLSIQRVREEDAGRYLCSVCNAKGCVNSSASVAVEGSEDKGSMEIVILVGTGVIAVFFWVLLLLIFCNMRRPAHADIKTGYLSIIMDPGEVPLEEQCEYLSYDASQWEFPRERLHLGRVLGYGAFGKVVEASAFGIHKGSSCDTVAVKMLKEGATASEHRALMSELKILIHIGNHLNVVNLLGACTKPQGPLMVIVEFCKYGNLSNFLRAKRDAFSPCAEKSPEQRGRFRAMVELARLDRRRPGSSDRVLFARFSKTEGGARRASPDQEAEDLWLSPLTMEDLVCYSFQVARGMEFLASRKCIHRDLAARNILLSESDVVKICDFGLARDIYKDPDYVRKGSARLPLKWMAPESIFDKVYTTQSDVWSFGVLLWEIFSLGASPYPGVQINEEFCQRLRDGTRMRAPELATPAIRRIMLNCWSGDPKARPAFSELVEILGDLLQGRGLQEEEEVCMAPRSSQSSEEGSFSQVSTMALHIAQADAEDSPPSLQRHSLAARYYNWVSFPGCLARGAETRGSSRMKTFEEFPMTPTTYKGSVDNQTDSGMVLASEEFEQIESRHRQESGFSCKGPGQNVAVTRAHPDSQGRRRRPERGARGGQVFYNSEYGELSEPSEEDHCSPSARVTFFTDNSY
T2 sequence (Q9HAZ1 whole entry): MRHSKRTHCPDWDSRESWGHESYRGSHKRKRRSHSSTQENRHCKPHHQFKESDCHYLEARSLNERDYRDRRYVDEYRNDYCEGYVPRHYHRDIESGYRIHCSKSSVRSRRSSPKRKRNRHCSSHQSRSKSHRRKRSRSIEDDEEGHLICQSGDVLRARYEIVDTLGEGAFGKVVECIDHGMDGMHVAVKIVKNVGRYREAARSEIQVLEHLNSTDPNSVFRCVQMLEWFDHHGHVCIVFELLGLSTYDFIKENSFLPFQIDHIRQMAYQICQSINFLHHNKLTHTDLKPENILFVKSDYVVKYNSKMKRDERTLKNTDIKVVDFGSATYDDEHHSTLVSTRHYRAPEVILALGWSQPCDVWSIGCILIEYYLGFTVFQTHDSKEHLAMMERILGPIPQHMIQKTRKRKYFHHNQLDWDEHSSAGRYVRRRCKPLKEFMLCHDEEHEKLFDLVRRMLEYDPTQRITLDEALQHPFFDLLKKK
T5 sequence (O00506 whole entry): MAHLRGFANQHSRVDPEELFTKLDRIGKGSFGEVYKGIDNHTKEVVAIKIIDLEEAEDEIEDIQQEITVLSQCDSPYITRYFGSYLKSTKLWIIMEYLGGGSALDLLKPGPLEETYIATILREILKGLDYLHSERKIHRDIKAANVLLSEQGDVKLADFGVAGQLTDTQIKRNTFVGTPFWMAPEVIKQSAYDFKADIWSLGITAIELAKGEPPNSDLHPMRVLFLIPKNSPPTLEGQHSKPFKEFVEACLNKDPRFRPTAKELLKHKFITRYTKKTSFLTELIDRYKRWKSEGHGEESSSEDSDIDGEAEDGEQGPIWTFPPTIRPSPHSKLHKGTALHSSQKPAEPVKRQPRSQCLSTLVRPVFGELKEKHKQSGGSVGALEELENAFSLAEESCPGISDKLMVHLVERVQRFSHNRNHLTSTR
T7 sequence (Q9H422 whole entry): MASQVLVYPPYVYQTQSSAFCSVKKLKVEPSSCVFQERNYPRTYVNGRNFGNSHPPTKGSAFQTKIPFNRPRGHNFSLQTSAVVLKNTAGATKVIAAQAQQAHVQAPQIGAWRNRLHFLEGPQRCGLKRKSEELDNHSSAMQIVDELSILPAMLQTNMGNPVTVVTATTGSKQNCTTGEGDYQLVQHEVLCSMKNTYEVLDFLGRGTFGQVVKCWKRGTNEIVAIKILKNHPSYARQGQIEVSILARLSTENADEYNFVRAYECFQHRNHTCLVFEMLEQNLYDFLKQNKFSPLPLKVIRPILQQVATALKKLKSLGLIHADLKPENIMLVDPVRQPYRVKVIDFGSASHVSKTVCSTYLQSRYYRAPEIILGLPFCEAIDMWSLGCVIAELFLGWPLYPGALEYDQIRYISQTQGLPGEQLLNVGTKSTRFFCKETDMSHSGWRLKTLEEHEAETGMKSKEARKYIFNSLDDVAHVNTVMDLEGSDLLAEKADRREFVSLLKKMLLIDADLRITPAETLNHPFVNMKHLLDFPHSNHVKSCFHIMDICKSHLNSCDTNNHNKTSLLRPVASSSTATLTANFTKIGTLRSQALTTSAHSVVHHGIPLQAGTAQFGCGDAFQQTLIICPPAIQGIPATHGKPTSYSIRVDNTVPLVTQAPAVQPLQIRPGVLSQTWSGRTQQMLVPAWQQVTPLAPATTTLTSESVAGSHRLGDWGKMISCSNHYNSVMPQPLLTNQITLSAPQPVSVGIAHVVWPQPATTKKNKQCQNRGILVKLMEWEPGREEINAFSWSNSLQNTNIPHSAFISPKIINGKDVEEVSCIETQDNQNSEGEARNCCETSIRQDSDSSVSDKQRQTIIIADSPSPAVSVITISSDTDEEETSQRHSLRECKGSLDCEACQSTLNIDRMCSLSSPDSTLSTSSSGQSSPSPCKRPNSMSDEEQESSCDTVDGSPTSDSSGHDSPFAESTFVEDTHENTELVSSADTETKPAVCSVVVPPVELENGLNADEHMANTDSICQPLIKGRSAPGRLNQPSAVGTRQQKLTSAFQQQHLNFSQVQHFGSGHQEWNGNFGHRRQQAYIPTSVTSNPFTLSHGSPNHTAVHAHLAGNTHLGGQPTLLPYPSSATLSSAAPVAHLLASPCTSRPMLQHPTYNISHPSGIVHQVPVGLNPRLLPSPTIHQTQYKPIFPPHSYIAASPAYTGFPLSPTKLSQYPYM
T1 sequence (Q13177 whole entry): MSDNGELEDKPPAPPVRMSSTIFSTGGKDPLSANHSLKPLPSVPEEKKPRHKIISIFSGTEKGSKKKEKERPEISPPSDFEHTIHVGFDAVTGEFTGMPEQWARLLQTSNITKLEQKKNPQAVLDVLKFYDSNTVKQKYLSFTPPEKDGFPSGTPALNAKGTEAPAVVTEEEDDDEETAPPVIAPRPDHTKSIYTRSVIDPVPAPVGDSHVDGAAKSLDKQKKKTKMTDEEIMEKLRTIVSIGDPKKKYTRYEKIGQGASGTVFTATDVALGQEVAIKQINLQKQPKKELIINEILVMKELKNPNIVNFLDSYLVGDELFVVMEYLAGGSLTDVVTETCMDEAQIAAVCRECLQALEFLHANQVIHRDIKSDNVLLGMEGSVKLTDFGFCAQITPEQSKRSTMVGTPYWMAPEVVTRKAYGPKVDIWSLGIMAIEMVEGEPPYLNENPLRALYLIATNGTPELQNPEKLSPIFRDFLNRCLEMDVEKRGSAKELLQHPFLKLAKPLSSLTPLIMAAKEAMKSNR

C=CC(=O)Nc1cccc(Nc2nc(Nc3ccc(OCCOC)c(F)c3)ncc2F)c1 [Compound 2]
inhibition at 3 µM (PAK2): 4.8%
remaining activity at 3 µM (PAK2; [1]): 95.5%
remaining activity at 3 µM (PAK2; [2]): 94.9%
inhibition at 3 µM (CLK4): 44.3%
remaining activity at 3 µM (CLK4; [1]): 57.4%
remaining activity at 3 µM (CLK4; [2]): 53.9%
inhibition at 3 µM (FLT4/VEGFR3): 56%
remaining activity at 3 µM (FLT4/VEGFR3; [1]): 43.8%
remaining activity at 3 µM (FLT4/VEGFR3; [2]): 44.2%
inhibition at 3 µM (EPHB3): 1.31%
remaining activity at 3 µM (EPHB3; [1]): 99.2%
remaining activity at 3 µM (EPHB3; [2]): 98.2%
inhibition at 3 µM (STK25/YSK1): 5.72%
remaining activity at 3 µM (STK25/YSK1; [1]): 94.5%
remaining activity at 3 µM (STK25/YSK1; [2]): 94.1%
inhibition at 3 µM (DYRK2): 38.5%
remaining activity at 3 µM (DYRK2; [1]): 61%
remaining activity at 3 µM (DYRK2; [2]): 62.1%
inhibition at 3 µM (HIPK3): -15.1%
remaining activity at 3 µM (HIPK3; [1]): 112%
remaining activity at 3 µM (HIPK3; [2]): 118%
